The results in this text go back to publication PMC11477482 (Molecules, 2024).

Data set [1] can be described thus: Stability at different temperatures, pH 5 (UV-vis absorbance). Particulars: for thermostability: pH 5, 4, 25, 40 and 60 °C. The class given is physicochemical. The protocol: Each compound solution (100 µM) buffered at pH 5 was prepared in triplicate. The other three samples were stored at 4 °C, 25 °C, 40 °C, and 60 °C, protected from light. Aliquots of 3.00 mL were transferred to quartz cuvettes at specific time points, and their absorbance was measured by UV–vis spectrophotometry. The blank of each pH corresponded to 3.00 mL of respective buffer. Stability was determined in terms of the change in the maximum peak absorbance.

Data set [2] is described as follows: Stability in metal solutions, pH 5 (UV-vis absorbance). Format: physicochemical. The procedure: Five independent metal solutions (100 µM) were prepared in a buffer at pH 5, in triplicate. To the compound solutions, a volume of metal solutions was added to a final proportion of 1:1. The stability in the presence of different metals was analyzed at specific time points. The solutions were stored at room temperature in the dark. Aliquots of 3.00 mL were transferred to quartz cuvettes at specific time points to measure their absorbance using UV–vis spectrophotometry. Solutions of each metal were used as blanks.

The nature of data set [3]: Stability at different pH values (UV-vis absorbance). Format: physicochemical. The settings on record: for pH stability: 100 µM buffered solutions, pH 2 to 8. The procedure: Buffer solutions with pH values between 2 and 8 were prepared and their pH was measured. The buffer solutions were prepared according to Portuguese Pharmacopeia 11.0 specifications. Each compound solution (100 µM) buffered at a specific pH was prepared in triplicate. The solutions were stored at room temperature and protected from light. Aliquots of 3.00 mL were transferred to quartz cuvettes at specific time points, and their absorbance was measured by ultraviolet/visible (UV–vis) spectrophotometry. The blank for each pH corresponded to 3.00 mL of the respective buffer.

Data set [4] concerns RAW264.7 cells (mitochondrial O2− production). Nature of the data set: Mitochondrial antioxidant activity (MitoSOX, rotenone-induced superoxide). Format: cell-based, mouse. The settings on record: 500 μM; for mitochondrial antioxidant activity: rotenone 20 μM. The procedure: The human keratinocytes (HaCaT, CLS 300493, Eppelheim, Germany) cell line was cultured with Dulbecco’s Modified Eagle’s Medium (DMEM) (Sigma-Aldrich, St. Louis, MO, USA), supplemented with 10% (v/v) of heat-inactivated fetal bovine serum (FBS), 1% (v/v) antibiotic solution (from a 10,000 U/mL penicillin and 10,000 μg/mL streptomycin stock) (Gibco, Carlsbad, CA, USA), 3.7 g/L sodium bicarbonate, and 1 mM sodium pyruvate (Sigma-Aldrich, St. Louis, MO, USA). The cell culture of keratinocytes was detached with EDTA solution 1X (Sigma-Aldrich, St. Louis, MO, USA) when the cells reached 70–80% confluence in cell culture flasks. The mouse macrophage cell line (RAW 264.7, ATCC TIB-71, Manassas, VA, USA) was cultured in DMEM supplemented with 10% (v/v) non-inactivated FBS, 1% (v/v) antibiotic solution, 1.5 g/L sodium bicarbonate, and 1 mM sodium pyruvate. Macrophages were mechanically detached with a cell scraper and subcultured in (1:10) proportion of cellular suspension to a final volume of DMEM. The human monocytic cell line THP-1 (ATCC® TIB-202™, American Type Culture Collection, Manassas, VA, USA) was cultivated in RPMI 1640 supplemented with 10% inactivated FBS, 25 mM (D)-glucose, 10 mM HEPES, 1 mM sodium pyruvate, 100 U/mL penicillin, and 100 μg/mL streptomycin, and maintained at a cell density of 0.4 × 10^6 cells/mL. Cells were subcultured every 2 or 3 days and maintained in culture for 2–3 months, according to ATCC® instructions.
Mitochondrial superoxide (O2^−) generation was determined using the MitoSOX Red kit, according to the manufacturer’s instructions. Briefly, 5.0 × 10^5 cells/mL were plated in a 12-well plate and incubated for 24 h at 37 °C. The cells were then exposed to the AA, AAG and AAGS solution (500 µM), and after 1 h, rotenone (20 μM) was added, followed by incubation for an additional 5 h. The cells were then carefully detached, transferred to microtubes, and centrifuged at 500× g for 3 min. The cell pellet was washed with HBSS solution (2 × 1 mL), resuspended in PBS solution, and 300 µL was collected in two microtubes for unstained (150 µL) and stained (150 µL) conditions. The stained cells were incubated with 100 μL of freshly prepared MitoSOX solution 2.5 µM at 37 °C for 15 min in the dark. The stained cells were washed with HBSS solution (2 × 1 mL), and the cell pellet was resuspended in 100 μL of PBS and analyzed by flow cytometry using a BD Accuri™ C6 cytometer (San Jose, CA, USA).
(§1) CD86 and CD54 levels were analyzed by flow cytometry using the acquisition channels FL1 and FL4. Mitochondrial O2^− production was measured by flow cytometry using the acquisition channel FL2. The relative fluorescence intensity (RFI) of CD86 and CD54 (THP-1 maturation assay) and MitoSOX (mitochondrial antioxidant activity) in the control and chemical-treated cells, based on the geometric mean fluorescence intensity (MFI), was calculated according to the following equation: RFI=MFI of chemical treated cells−MFI of chemical treated unstained cells/MFI of control treated cells−MFI of control unstained cells ×100

The test system of data set [5] is THP-1 cells (CD54 and CD86 expression). Nature of the data set: Skin sensitization potential, h-CLAT (CD54 and CD86 expression). Format: cell-based, human. The settings on record: THP-1, h-CLAT.
Excerpt: The cell culture of keratinocytes was detached with EDTA solution 1X (Sigma-Aldrich, St. Louis, MO, USA) when the cells reached 70–80% confluence in cell culture flasks. […] Macrophages were mechanically detached with a cell scraper and subcultured in (1:10) proportion of cellular suspension to a final volume of DMEM. […] Cells were subcultured every 2 or 3 days and maintained in culture for 2–3 months, according to ATCC® instructions.
Following OECD guidelines, researchers utilized the THP-1 human monocyte cell line as a substitute for dendritic cells (DCs) to assess skin sensitization potential. […] The cell pellet was further resuspended in 100 µL of PBS and analyzed by flow cytometry using a BD Accuri™ C6 cytometer (San Jose, CA, USA).
as §1

“Also recorded” adds a separate entry of the source.

For `O=C1O[C@H]([C@@H](O)CO)C(O)=C1O` [AA, Ascorbic acid], the “thermostability” value in data set [1] is “decomposed with time at all the temperatures tested”. Besides, the “absorbance normalized to t = 0” value is recorded as less than 30% in data set [1] (pH 5, 60 °C, in 2 h) and less than 50% in data set [1] (pH 5, storage at 25 °C). For the same compound, the loss of absorbance in data set [2] (pH 5, Cu(II), Fe(II), and Fe(III)) is recorded as greater than 80%. In data set [3], the “pH stability” value is “unstable at acidic and neutral pH”. Further, in data set [3] (acidic and neutral pH, 100 µM aqueous buffer), the variations in absorbance is given as greater than 90%. Besides, the “pro-oxidant profile” value in data set [4] is “AA, AAG, and AAGS with no pro-oxidant profile % inhibition of rotenone-induced SO2^− production: AA > AAG > AAGS”.
Regarding `O=C1O[C@H]([C@@H](O)CO)C(O)=C1O[C@H]1O[C@H](CO)[C@@H](O)[C@H](O)[C@H]1O` [AAG, 2-O-α-D-glucopyranosyl-L-ascorbic acid], in data set [5], the “skin sensitization potential” value was “AA, AAG, and AAGS with non-sensitizer profile”. The compound further had a loss of absorbance in data set [2] (pH 5, Fe(III) and Cu(II), at the end of 1 d) of less than 30%. Further, in data set [4], the “pro-oxidant profile” value is “AA, AAG, and AAGS with no pro-oxidant profile % inhibition of rotenone-induced SO2^− production: AA > AAG > AAGS”; the “mitochondrial antioxidant activity” value is on record as “did not demonstrate an ability to exert antioxidant activity in mitochondria”.
For the compound `O=C1OC(C(COS(=O)(=O)O)OS(=O)(=O)O)C(OS(=O)(=O)O)=C1OC1OC(COS(=O)(=O)O)C(OS(=O)(=O)O)C(OS(=O)(=O)O)C1OS(=O)(=O)O` [AAGS, 2-O-α-D-glucopyranosyl-L-ascorbic acid persulfate], the “skin sensitization potential” value in data set [5] is “non-sensitizing profile; also recorded: AA, AAG, and AAGS with non-sensitizer profile”. Further, the “thermostability” value in data set [1] is recorded as “highest level of stability among the compounds”. Besides, the loss of absorbance in data set [2] (pH 5, Ca(II), Cu(II), and Fe(III), after one day) is reported as greater than 50%. The “pH stability” value in data set [3] is on record as “improved stability covering a larger range of pH values (pH = 2–6)”. In data set [4], the “pro-oxidant profile” value was “non-prooxidant; also recorded: AA, AAG, and AAGS with no pro-oxidant profile % inhibition of rotenone-induced SO2^− production: AA > AAG > AAGS”; the “mitochondrial antioxidant activity” value was “did not demonstrate an ability to exert antioxidant activity in mitochondria”.
